# Patent US8680133B2, “Alkyl indole-3-carbinol-derived antitumor agents” (The Ohio State University Research Foundation, priority 2009, dated 2014)
# Tests used:
# [1] = system: UACC-62; test: NCI60 screening, Melanoma, UACC-62; assay type: cell-based, human
# [2] = system: LOX IMVI; test: NCI60 screening, Melanoma, LOX IMVI; assay type: cell-based, human
# [3] = system: SK-MEL-5; test: NCI60 screening, Melanoma, SK-MEL-5; assay type: cell-based, human
# [4] = system: DU-145; test: NCI60 screening, Prostate Cancer, DU-145; assay type: cell-based, human
# [5] = system: RXF 393; test: NCI60 screening, Renal Cancer, RXF 393; assay type: cell-based, human
# [6] = system: HL-60(TB); test: NCI60 screening, Leukemia, HL-60(TB); assay type: cell-based, human
# [7] = system: IGROV1; test: NCI60 screening, Ovarian Cancer, IGROV1; assay type: cell-based, human
# [8] = system: KM12; test: NCI60 screening, Colon Cancer, KM12; assay type: cell-based, human
# [9] = system: T-47D; test: NCI60 screening, Breast Cancer, T-47D; assay type: cell-based, human
# [10] = system: NCI-H226; test: NCI60 screening, Non-Small Cell Lung Cancer, NCI-H226; assay type: cell-based, human
# [11] = Hematology, serum chemistry, liver weight and food consumption of mice fed the OSU-A9M diet; assay type: in vivo
# From the text: Further supporting a lack of toxicity with the experimental diet is a preservation of body weight (and liver weight) of mice sacrificed at the conclusion of the 6-week treatment period. 1.3±0.1 g (3.9±0.5%) in drug-treated mice vs. 1.5±0.3 g (4.3±0.7%) in controls; liver percent body weight in parentheses following absolute weight, means±SD, n=7, P=0.1 and 0.5 for absolute and relative values. There was no significant difference in the amount of control or experimental diet consumed by the mice [2.4±0.3 g in drug-treated mice vs 2.5±0.1 g in controls (P=0.5)]. Throughout the treatment period, the drug-treated mice consumed 34.1±4.6 mg OSU-A9M per kg body weight per day, calculated as g diet consumed per day/g body weight×450 (overall mean±SD of weekly means).
# [12] = system: OVCAR-3; test: NCI60 screening, Ovarian Cancer, OVCAR-3; assay type: cell-based, human
# [13] = system: SF-268; test: NCI60 screening, CNS Cancer, SF-268; assay type: cell-based, human
# [14] = system: MDA-MB-435; test: NCI60 screening, Melanoma, MDA-MB-435; assay type: cell-based, human
# [15] = Homo sapiens, read-out: LC50 (the source's name)
# [16] = 450 ppm in diet, 6-week treatment, mean±SD, n=7
# [17] = 450 ppm in diet, 18 to 24 weeks of age, mean±SD, n=5
smiles,measurement,setting,value
"Cc1ccc2c(c1)c(CO)cn2S(=O)(=O)c1ccc(Cl)c([N+](=O)[O-])c1 [OSU-A9M, [1-(4-chloro-3-nitro-benzenesulfonyl)-5-methyl-1H-indol-3-yl]-methanol]",TGI,[1],3.19E−6
same,GI50,[1]; Homo sapiens,1670 nM
same,CC50,[1]; [15],6070 nM
same,Percent Growth,[1]; Log10 Concentration −4.0,−93%
same,Percent Growth,[1]; Log10 Concentration −5.0,−89%
same,Percent Growth,[1]; Log10 Concentration −6.0,90%
same,Percent Growth,[1]; Log10 Concentration −7.0,91%
same,Percent Growth,[1]; Log10 Concentration −8.0,93%
same,TGI,[2],2.86E−7
same,GI50,[2]; Homo sapiens,138 nM
same,CC50,[2]; [15],594 nM
same,Percent Growth,[2]; Log10 Concentration −4.0,−100%
same,Percent Growth,[2]; Log10 Concentration −5.0,−100%
same,Percent Growth,[2]; Log10 Concentration −6.0,−86%
same,Percent Growth,[2]; Log10 Concentration −7.0,72%
same,Percent Growth,[2]; Log10 Concentration −8.0,84%
same,TGI,[3],2.83E−6
same,GI50,[3]; Homo sapiens,1500 nM
same,CC50,[3]; [15],5320 nM
same,Percent Growth,[3]; Log10 Concentration −4.0,−100%
same,Percent Growth,[3]; Log10 Concentration −5.0,−100%
same,Percent Growth,[3]; Log10 Concentration −6.0,82%
same,Percent Growth,[3]; Log10 Concentration −7.0,92%
same,Percent Growth,[3]; Log10 Concentration −8.0,96%
same,TGI,[4],3.04E−6
same,GI50,[4]; Homo sapiens,1670 nM
same,CC50,[4]; [15],5510 nM
same,Percent Growth,[4]; Log10 Concentration −4.0,−100%
same,Percent Growth,[4]; Log10 Concentration −5.0,−100%
same,Percent Growth,[4]; Log10 Concentration −6.0,93%
same,Percent Growth,[4]; Log10 Concentration −7.0,95%
same,Percent Growth,[4]; Log10 Concentration −8.0,103%
same,TGI,[5],4.10E−6
same,GI50,[5]; Homo sapiens,1940 nM
same,CC50,[5]; [15],8650 nM
same,Percent Growth,[5]; Log10 Concentration −4.0,−85%
same,Percent Growth,[5]; Log10 Concentration −5.0,−60%
same,Percent Growth,[5]; Log10 Concentration −6.0,94%
same,Percent Growth,[5]; Log10 Concentration −7.0,102%
same,Percent Growth,[5]; Log10 Concentration −8.0,101%
same,TGI,[6],4.80E−6
same,GI50,[6]; Homo sapiens,1550 nM
same,CC50,[6]; [15],32500 nM
same,Percent Growth,[6]; Log10 Concentration −4.0,−67%
same,Percent Growth,[6]; Log10 Concentration −5.0,−32%
same,Percent Growth,[6]; Log10 Concentration −6.0,69%
same,Percent Growth,[6]; Log10 Concentration −7.0,84%
same,Percent Growth,[6]; Log10 Concentration −8.0,91%
same,TGI,[7],1.23E−6
same,GI50,"[7]; Homo sapiens, IGROV-1",349 nM
same,CC50,"[7]; Homo sapiens, IGROV-1, read-out: LC50 (the source's name)",3500 nM
same,Percent Growth,[7]; Log10 Concentration −4.0,−100%
same,Percent Growth,[7]; Log10 Concentration −5.0,−100%
same,Percent Growth,[7]; Log10 Concentration −6.0,10%
same,Percent Growth,[7]; Log10 Concentration −7.0,98%
same,Percent Growth,[7]; Log10 Concentration −8.0,86%
same,TGI,[8],2.97E−6
same,GI50,[8]; Homo sapiens,1620 nM
same,CC50,[8]; [15],5450 nM
same,Percent Growth,[8]; Log10 Concentration −4.0,−100%
same,Percent Growth,[8]; Log10 Concentration −5.0,−100%
same,Percent Growth,[8]; Log10 Concentration −6.0,90%
same,Percent Growth,[8]; Log10 Concentration −7.0,97%
same,Percent Growth,[8]; Log10 Concentration −8.0,105%
same,TGI,[9],2.91E−6
same,GI50,"[9]; Homo sapiens, T47D",1120 nM
same,CC50,"[9]; Homo sapiens, T47D, read-out: LC50 (the source's name)",7540 nM
same,Percent Growth,[9]; Log10 Concentration −4.0,−61%
same,Percent Growth,[9]; Log10 Concentration −5.0,−65%
same,Percent Growth,[9]; Log10 Concentration −6.0,56%
same,Percent Growth,[9]; Log10 Concentration −7.0,93%
same,Percent Growth,[9]; Log10 Concentration −8.0,95%
same,TGI,[10],3.32E−6
same,GI50,[10]; Homo sapiens,953 nM
same,CC50,[10]; [15],17400 nM
same,Percent Growth,[10]; Log10 Concentration −4.0,−65%
same,Percent Growth,[10]; Log10 Concentration −5.0,−45%
same,Percent Growth,[10]; Log10 Concentration −6.0,49%
same,Percent Growth,[10]; Log10 Concentration −7.0,93%
same,Percent Growth,[10]; Log10 Concentration −8.0,91%
same,Amount of diet consumed,[11]; 450 ppm experimental diet,2.4 ± 0.3 g
same,Liver percent body weight,[11]; [16],3.9±0.5%
same,Liver weight (absolute),[11]; [16],1.3 ± 0.1 g
same,ALP,[11]; [17],70.0 ± 14.6 iu/L
same,ALT,[11]; [17],25.8 ± 8.0 iu/L
same,AST,[11]; [17],69.6 ± 27.2 iu/L
same,Albumin,[11]; [17],3.6 ± 0.2 g/dL
same,BUN,[11]; [17],23.6 ± 2.9 mg/dL
same,CK,[11]; [17],222.2 ± 144.5 iu/L
same,Calcium,[11]; [17],10.7 ± 0.2 mg/dL
same,Cholesterol,[11]; [17],193.4 ± 28.1 mg/dL
same,Creatinine,[11]; [17],0.1 ± 0.0 mg/dL
same,Globulin,[11]; [17],2.2 ± 0.1 g/dL
same,Glucose,[11]; [17],301.8 ± 53.6 mg/dL
same,Lymphocytes,[11]; [17],9.8 ± 3.1 ×10^3/μl
same,Nucleated cells,[11]; [17],11.4 ± 3.7 ×10^3/μl
same,PCV,[11]; [17],44.4 ± 1.1%
same,Phosphorus,[11]; [17],6.5 ± 0.5 mg/dL
same,Platelets,[11]; [17],327.2 ± 310.0 ×10^3/μl
same,Potassium,[11]; [17],6.9 ± 0.4 mEq/L
same,RBC,[11]; [17],10.3 ± 0.3 ×10^6/μl
same,Segmented neutrophils,[11]; [17],1.3 ± 0.5 ×10^3/μl
same,Total Bilirubin,[11]; [17],0.2 ± 0.0 mg/dL
same,Total Protein,[11]; [17],5.8 ± 0.3 g/dL
same,Complete cell blood counts and serum chemistry profiles,"[11]; 450 ppm in diet, in words",none of the measured parameters are affected by drug treatment
same,TGI,[12],4.90E−7
same,GI50,[12]; Homo sapiens,225 nM
same,CC50,[12]; [15],1190 nM
same,Percent Growth,[12]; Log10 Concentration −4.0,−100%
same,Percent Growth,[12]; Log10 Concentration −5.0,−100%
same,Percent Growth,[12]; Log10 Concentration −6.0,−46%
same,Percent Growth,[12]; Log10 Concentration −7.0,102%
same,Percent Growth,[12]; Log10 Concentration −8.0,100%
same,TGI,[13],3.01E−6
same,GI50,[13]; Homo sapiens,1650 nM
same,CC50,[13]; [15],5490 nM
same,Percent Growth,[13]; Log10 Concentration −4.0,−100%
same,Percent Growth,[13]; Log10 Concentration −5.0,−100%
same,Percent Growth,[13]; Log10 Concentration −6.0,92%
same,Percent Growth,[13]; Log10 Concentration −7.0,89%
same,Percent Growth,[13]; Log10 Concentration −8.0,86%
same,TGI,[14],2.93E−6
same,GI50,[14]; Homo sapiens,1520 nM
same,LC50 (50% lethal concentration),[14]; Homo sapiens,5640 nM
same,Percent Growth,[14]; Log10 Concentration −4.0,−92%
same,Percent Growth,[14]; Log10 Concentration −5.0,−94%
same,Percent Growth,[14]; Log10 Concentration −6.0,82%
same,Percent Growth,[14]; Log10 Concentration −7.0,87%
same,Percent Growth,[14]; Log10 Concentration −8.0,95%
